Structures are written as SMILES.

This note sets out measurements from patent publication US9328138B2 (priority 2011, dated 2016).

Experiment [1] addresses T1, HCV genotype 1b (BK) NS3 modified enzyme with a R155K mutation (Hepatitis C virus genotype 1b, UniProt P26663, R1181K).
T1 construct: HCV genotype 1b (BK) NS3 modified enzyme
Kind of experiment: HCV NS3 protease time-resolved fluorescence (TRF) assay, genotype 1b R155K. Type of experiment: biochemical. The note with it: Ki 1b R155K, genotype 1b (BK) NS3 R155K; single value. The procedure, abridged:
(§1)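 IC50 values derive from 4-parameter fitting of TRF signal after a 6 h room-temperature cleavage of 25 nM peptide substrate by NS3/NS4A that had been pre-incubated 10 min with compound.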

In experiment [2] the target is HCV NS3 protease genotype 3a (3A-1) (Hepatitis C virus genotype 3a, UniProt Q81258). Kind of experiment: HCV NS3 protease time-resolved fluorescence (TRF) assay, genotype 3a. The note with it: Ki 3a. Type of experiment: biochemical. The procedure, abridged: as §1

The Ki is a measure of affinity in units of concentration, obtained from inhibition or displacement. Turning to `C=C[C@@H]1C[C@]1(NC(=O)[C@@H]1C[C@@H]2CN1C(=O)[C@H](C(C)(C)C)NC(=O)O[C@@H]1C[C@H]1CCCCCc1c(nc3ccccc3c1OC1CCN(CCOC)CC1)O2)C(=O)NS(=O)(=O)C1(C)CC1` [Example 225, (1aR,5S,8S,10R,22aR)-5-tert-butyl-N-[(1R,2S)-2-ethenyl-1-{[(1-methylcyclopropyl)sulfonyl]carbamoyl}cyclopropyl]-17-{[1-(2-methoxyethyl)piperidin-4-yl]oxy}-3,6-dioxo-1,1a,3,4,5,6,9,10,18,19,20,21,22,22a-tetradecahydro-8H-7,10-methanocyclopropa[18,19][1,10,3,6]dioxadiazacyclononadecino[11,12-b]quinoline-8-carboxamide], the Ki in experiment [1] was 0.079 nM; in experiment [2], 0.6 nM.

In the case of `C=C[C@@H]1C[C@]1(NC(=O)[C@@H]1C[C@@H]2CN1C(=O)[C@H](C(C)(C)C)NC(=O)O[C@@H]1C[C@H]1CCCCCc1c(nc3ccccc3c1OCC1CN(CC)CCO1)O2)C(=O)NS(=O)(=O)C1(C)CC1` (stereo partly drawn) [Example 226, (1aR,5S,8S,10R,22aR)-5-tert-butyl-N-[(1R,2S)-2-ethenyl-1-{[(1-methylcyclopropyl)sulfonyl]carbamoyl}cyclopropyl]-17-[(4-ethylmorpholin-2-yl)methoxy]-3,6-dioxo-1,1a,3,4,5,6,9,10,18,19,20,21,22,22a-tetradecahydro-8H-7,10-methanocyclopropa[18,19][1,10,3,6] dioxadiazacyclononadecino[11,12-b]quinoline-8-carboxamide], the values for the Ki in experiment [1] and in experiment [2] were 0.11 nM and 1.6 nM, respectively.

`C=C[C@@H]1C[C@]1(NC(=O)[C@@H]1C[C@@H]2CN1C(=O)[C@H](C(C)(C)C)NC(=O)O[C@@H]1C[C@H]1CCCCCc1c(nc3ccccc3c1OCC1CCN(CC)CC1)O2)C(=O)NS(=O)(=O)C1(C)CC1` [Example 227, (1aR,5S,8S,10R,22aR)-5-tert-butyl-N-[(1R,2S)-2-ethenyl-1-{[(1-methylcyclopropyl)sulfonyl]carbamoyl}cyclopropyl]-17-[(1-ethylpiperidin-4-yl)methoxy]-3,6-dioxo-1,1a,3,4,5,6,9,10,18,19,20,21,22,22a-tetradecahydro-8H-7,10-methanocyclopropa[18,19][1,10,3,6] dioxadiazacyclononadecino[11,12-b]quinoline-8-carboxamide]: the Ki in experiment [1] was 0.095 nM; in experiment [2] it was 0.36 nM.

Turning to `C=C[C@@H]1C[C@]1(NC(=O)[C@@H]1C[C@@H]2CN1C(=O)[C@H](C(C)(C)C)NC(=O)O[C@@H]1C[C@H]1CCCCCc1c(nc3ccccc3c1OCC1CCN(CCOC)CC1)O2)C(=O)NS(=O)(=O)C1(C)CC1` [Example 228, (1aR,5S,8S,10R,22aR)-5-tert-butyl-N-[(1R,2S)-2-ethenyl-1-{[(1-methylcyclopropyl)sulfonyl]carbamoyl}cyclopropyl]-17-{[1-(2-methoxyethyl)piperidin-4-yl]methoxy}-3,6-dioxo-1,1a,3,4,5,6,9,10,18,19,20,21,22,22a-tetradecahydro-8H-7,10-methanocyclopropa[18,19][1,10,3,6] dioxadiazacyclononadecino[11,12-b]quinoline-8-carboxamide], the figures for the Ki in experiment [1] and in experiment [2] were 0.11 nM and 0.47 nM, respectively.

Consider `C=C[C@@H]1C[C@]1(NC(=O)[C@@H]1C[C@@H]2CN1C(=O)[C@H](C(C)(C)C)NC(=O)O[C@@H]1C[C@H]1CCCCCc1c(nc3ccccc3c1OC1CCN(CC)CC1)O2)C(=O)NS(=O)(=O)C1(C)CC1` [Example 229, (1aR,5S,8S,10R,22aR)-5-tert-butyl-N-[(1R,2S)-2-ethenyl-1-{[(1-methylcyclopropyl)sulfonyl]carbamoyl}cyclopropyl]-17-[(1-ethylpiperidin-4-yl)oxy]-3,6-dioxo-1,1a,3,4,5,6,9,10,18,19,20,21,22,22a-tetradecahydro-8H-7,10-methanocyclopropa[18,19][1,10,3,6] dioxadiazacyclononadecino[11,12-b]quinoline-8-carboxamide], for which the Ki in experiment [1] was 0.034 nM; in experiment [2], 0.25 nM.
